{"source": "ChEMBL document CHEMBL6182916", "about": "“Unexpected Discovery of a Novel Triphenylphosphonium Alkylalcohol That Triggers Cancer Cell Death via Mitophagy and Ferroptosis” (J Med Chem, 2025)", "key": {"[1]": {"assay": "Toxicity in female Kunming mouse assessed as change in body weight at 70 mg/kg, ip measured every two days for 7 days", "format": "organism-based", "conditions": "in vivo, 168 h, time 7 day"}, "[2]": {"assay": "Toxicity in male Kunming mouse assessed as animal death at 70 mg/kg, ip measured every two days for 7 days", "format": "organism-based", "conditions": "in vivo, 168 h, time 7 day"}, "HCC827 [3]": {"system": "HCC827", "assay": "Downregulation of VDAC1 expression level in human HCC827 cells 0.25 to 0.5 uM incubated for 24 hrs in presence of BFA by Western blot analysis", "format": "functional, cell-based", "conditions": "dose 0.25-0.5 µM"}, "HCC827 [4]": {"system": "HCC827", "assay": "Downregulation of TIMM23 expression level in human HCC827 cells incubated for 24 hrs by Western blot analysis", "format": "functional, cell-based", "conditions": "dose 0.25-0.5 µM"}, "HCC827 [5]": {"system": "HCC827", "assay": "Effect on NDUFB8 expression in human HCC827 cells at 0.25 to 0.5 uM", "format": "functional, cell-based", "conditions": "dose 0.25-0.5 µM"}, "HCC827 [6]": {"system": "HCC827", "assay": "Antiproliferative activity against human HCC827 cells assessed as cell viability at 1 uM measured after 48 hrs in presence of ferrostatin-1 by MTT assay relative to control", "format": "functional", "conditions": "read-out: Activity"}, "HCC827 [7]": {"system": "HCC827", "assay": "Induction of apoptosis in human HCC827 cells assessed as necrotic cells at 0.5 uM measured after 48 hrs by annexin V and PI staining based flow cytometry analysis (reference value: 1.18%)", "format": "functional"}, "HCC827 [8]": {"system": "HCC827", "assay": "Induction of apoptosis in human HCC827 cells assessed as viable cells at 1.0 uM measured after 48 hrs by annexin V and PI staining based flow cytometry analysis (reference value: 96.74%)", "format": "functional", "conditions": "read-out: Activity"}, "HCC827 [9]": {"system": "HCC827", "assay": "Antitumor activity against human HCC827 cells xenografted in female nude mouse model assessed as reduction in tumor size at 5 to 10 mg/kg, ip measured every two days for 14 days", "format": "functional, organism-based", "conditions": "dose 5-10 mg/kg, time 14.0 day"}, "HEK-293T [10]": {"system": "HEK-293T", "assay": "Downregulation of TIMM23 expression level in human HEK293T cells", "format": "functional, cell-based", "conditions": "dose 0.25-0.5 µM"}, "HCC827 [11]": {"system": "HCC827", "assay": "Induction of apoptosis in human HCC827 cells assessed as early apoptotic cells at 1 uM measured after 48 hrs by annexin V and PI staining based flow cytometry analysis (reference value: 0.70%)", "format": "functional"}, "HCC827 [12]": {"system": "HCC827", "assay": "Effect on COX1 expression in human HCC827 cells at 0.25 to 0.5 uM", "format": "functional, cell-based", "conditions": "dose 0.25-0.5 µM"}, "HCC827 [13]": {"system": "HCC827", "assay": "Induction of cell cycle arrest in human HCC827 cells assessed as accumulation of cells at S phase at 0.4 uM incubated for 24 hrs by PI staining based flow cytometry analysis (reference value: 26.41%)", "format": "functional"}, "HCC827 [14]": {"system": "HCC827", "assay": "Induction of mitophagy in human HCC827 cells assessed as increase in LC3-II/LC-3-I ratio at 0.5 uM measured after 24 hrs in presence of Baf A1 by Western blot analysis", "format": "functional, cell-based"}, "HCC827 [15]": {"system": "HCC827", "assay": "Downregulation of HK-2 expression level in human HCC827 cells incubated for 24 hrs by Western blot analysis", "format": "functional, cell-based", "conditions": "dose 0.25-0.5 µM"}, "HCC827 [16]": {"system": "HCC827", "assay": "Induction of apoptosis in human HCC827 cells assessed as necrotic cells at 1 uM measured after 48 hrs by annexin V and PI staining based flow cytometry analysis (reference value: 1.18%)", "format": "functional"}, "[17]": {"assay": "Toxicity in female nude mouse assessed as drug tolerance at 5 to 10 mg/kg, ip measured after 14 days", "format": "organism-based", "conditions": "in vivo, 336 h, dose 5-10 mg/kg, time 14 day"}, "Mitochondrial membrane [18]": {"system": "Mitochondrial membrane", "assay": "Induction of mitochondrial membrane depolarization in HEK293T cells assessed as JC-1 monomer ratio by measuring increase green fluorescence at 0.25 uM incubated for 4 hrs by JC-1 staining based confocal microscopy analysis", "format": "cell membranes", "conditions": "Homo sapiens"}, "HCC827 [19]": {"system": "HCC827", "assay": "Inhibition of cell migration in human HCC827 cells by wound healing assay", "format": "functional, cell-based", "conditions": "dose 0.05-0.1 µM"}, "HCC827 [20]": {"system": "HCC827", "assay": "Induction of mitophagy in human HCC827 cells assessed as increase in LC3-II/LC-3-I ratio at 0.5 uM measured after 24 hrs by Western blot analysis", "format": "functional, cell-based"}, "HCC827 [21]": {"system": "HCC827", "assay": "Induction of ROS generation in human HCC827 cells assessed as increase in superoxide anion level by measuring increase in red fluorescence intensity at 1 uM incubated for 4 hrs by laser scanning confocal fluorescence microscopic analysis", "format": "functional, cell-based"}, "A-375": {"system": "A-375", "assay": "Antiproliferative activity against human A-375 cells assessed as inhibition of cell growth measured after 72 hrs by MTT assay", "format": "functional, cell-based", "conditions": "A-375, 72 h"}, "HEK-293T [22]": {"system": "HEK-293T", "assay": "Downregulation of […] expression level in human HEK293T cells", "format": "functional, cell-based", "conditions": "dose 0.25-0.5 µM"}, "HCC827 [23]": {"system": "HCC827", "assay": "Induction of apoptosis in human HCC827 cells assessed as early apoptotic cells at 0.25 uM measured after 48 hrs by annexin V and PI staining based flow cytometry analysis (reference value: 0.70%)", "format": "functional"}, "HCC827 [24]": {"system": "HCC827", "assay": "Downregulation of VDAC1 expression level in human HCC827 cells 0.5 uM by Western blot analysis", "format": "functional, cell-based", "conditions": "time 3-24 hrs"}, "HCC827 [25]": {"system": "HCC827", "assay": "Induction of cell cycle arrest in human HCC827 assessed as increase in p21 expression level at 0.25 to 5 uM measured after 24 hrs by Western blot analysis", "format": "functional, cell-based", "conditions": "dose 0.25-5 µM"}, "HCC827 [26]": {"system": "HCC827", "assay": "Induction of mitochondrial dysfunction in human HCC827 cells assessed as reduction in glycolytic reserve at 0.125 to 5 uM incubated for 4 hrs by Seahorse XF96 extracellular flux analyzer", "format": "functional, cell-based", "conditions": "dose 0.125-5 µM"}, "Mitochondrial membrane [27]": {"system": "Mitochondrial membrane", "assay": "Induction of mitochondrial membrane depolarization in human NCI-H1650 cells assessed as increase in JC-1 monomer ratio at 0.25 to 0.5 uM incubated for 4 hrs by JC-1 staining based confocal microscopy analysis", "format": "cell membranes", "conditions": "dose 0.25-0.5 µM"}, "BEAS-2B": {"system": "BEAS-2B", "assay": "Induction of mitochondrial dysfunction in human BEAS-2B cells assessed as reduction in glycolytic capacity at 0.125 to 5 uM incubated for 4 hrs by Seahorse XF96 extracellular flux analyzer", "format": "functional, cell-based", "conditions": "dose 0.125-5 µM"}, "HCC827 [28]": {"system": "HCC827", "assay": "Induction of mitochondrial dysfunction in human HCC827 cells assessed as cytochrome C release in cytoplasm at 0.4 uM by laser scanning confocal fluorescence microscopic analysis", "format": "functional, cell-based", "conditions": "time 24-72 hrs"}, "HCC827 [29]": {"system": "HCC827", "assay": "Antiproliferative activity against human HCC827 cells assessed as inhibition of cell growth measured after 72 hrs by MTT assay", "format": "functional, cell-based", "conditions": "HCC827, 72 h"}, "HCC827 [30]": {"system": "HCC827", "assay": "Downregulation of SDHB expression in human HCC827 cells incubated for 24 hrs by Western blot analysis", "format": "functional, cell-based", "conditions": "dose 0.25-0.5 µM"}, "NCI-H460": {"system": "NCI-H460", "assay": "Antiproliferative activity against human NCI-H460 cells assessed as inhibition of cell growth measured after 72 hrs by MTT assay", "format": "functional, cell-based", "conditions": "NCI-H460, 72 h"}, "HCC827 [31]": {"system": "HCC827", "assay": "Antitumor activity against human HCC827 cells xenografted in female nude mouse model assessed as reduction in tumor weight at 5 to 10 mg/kg, ip measured every two days for 14 days", "format": "functional, organism-based", "conditions": "dose 5-10 mg/kg, time 14.0 day"}, "HCC827 [32]": {"system": "HCC827", "assay": "Induction of ferroptosis in human HCC827 cells assessed as decrease in GPX4 expression incubated for 24 hrs", "format": "functional, cell-based", "conditions": "dose 0.25-0.5 µM"}, "HCC827 [33]": {"system": "HCC827", "assay": "Effect on COX1 expression in human HCC827 cells at 0.25 to 0.5 uM incubated for 24 hrs by Western blot analysis", "format": "functional, cell-based", "conditions": "dose 0.25-0.5 µM"}, "HCC827 [34]": {"system": "HCC827", "assay": "Induction of ferroptosis in human HCC827 cells assessed as increase in lipid peroxidation level incubated for 24 hrs by absorbance based analysis", "format": "functional, cell-based", "conditions": "dose 0.25-0.5 µM"}, "HCC827 [35]": {"system": "HCC827", "assay": "Induction of apoptosis in human HCC827 cells assessed as early apoptotic cells at 1 uM measured after 24 hrs by annexin V and PI staining based flow cytometry analysis (reference value: 1.80%)", "format": "functional"}}, "note": "The source made the active and inactive calls. The calls are words filed in the database; no cut-off is given here.", "data": [{"compound": "Cc1ccc([P+](CCCCCCCCCCO)(c2ccc(C)cc2)c2ccc(C)cc2)cc1.[Br-]", "values": [{"measurement": "Activity", "setting": "[1]", "value": "Toxic"}, {"measurement": "Activity", "setting": "[2]", "value": "Toxic"}, {"measurement": "Activity", "setting": "HCC827 [3]", "value": "inactive"}, {"measurement": "Activity", "setting": "HCC827 [4]", "value": "Dose-dependent-effect"}, {"measurement": "Activity", "setting": "HCC827 [5]", "value": "Active"}, {"measurement": "viability at 1 µM", "setting": "HCC827 [6]", "value": 51.4, "unit": "%"}, {"measurement": "Activity", "setting": "HCC827 [7]", "value": 2.09, "unit": "%"}, {"measurement": "viability at 1 µM", "setting": "HCC827 [8]", "value": 82.8, "unit": "%"}, {"measurement": "Activity", "setting": "HCC827 [9]", "value": "Active"}, {"measurement": "Activity", "setting": "HEK-293T [10]", "value": "Dose-dependent-effect"}, {"measurement": "Activity", "setting": "HCC827 [11]", "value": 5.85, "unit": "%"}, {"measurement": "Activity", "setting": "HCC827 [12]", "value": "Active"}, {"measurement": "Activity", "setting": "HCC827 [13]", "value": 9.39, "unit": "%"}, {"measurement": "Activity", "setting": "HCC827 [14]", "value": "inactive"}, {"measurement": "Activity", "setting": "HCC827 [15]", "value": "Dose-dependent-effect"}, {"measurement": "Activity", "setting": "HCC827 [16]", "value": 2.19, "unit": "%"}, {"measurement": "Activity", "setting": "[17]", "value": "Non-toxic"}, {"measurement": "Activity", "setting": "Mitochondrial membrane [18]", "value": "inactive"}, {"measurement": "inhibition", "setting": "HCC827 [19]", "value": "Dose-dependent-effect"}, {"measurement": "Activity", "setting": "HCC827 [20]", "value": "Active"}, {"measurement": "Activity", "setting": "HCC827 [21]", "value": "Active"}, {"measurement": "IC50", "setting": "A-375", "value": 140, "unit": "nM"}, {"measurement": "Activity", "setting": "HEK-293T [22]", "value": "Dose-dependent-effect"}, {"measurement": "Activity", "setting": "HCC827 [23]", "value": 1.16, "unit": "%"}, {"measurement": "Activity", "setting": "HCC827 [24]", "value": "Time-dependent-effect"}, {"measurement": "Activity", "setting": "HCC827 [25]", "value": "Active"}, {"measurement": "Activity", "setting": "HCC827 [26]", "value": "Active"}, {"measurement": "Activity", "setting": "Mitochondrial membrane [27]", "value": "Active"}, {"measurement": "Activity", "setting": "BEAS-2B", "value": "Minimal_effect"}, {"measurement": "Activity", "setting": "HCC827 [28]", "value": "Time-dependent-effect"}, {"measurement": "IC50", "setting": "HCC827 [29]", "value": 70, "unit": "nM"}, {"measurement": "Activity", "setting": "HCC827 [30]", "value": "Active"}, {"measurement": "IC50", "setting": "NCI-H460", "value": 110, "unit": "nM"}, {"measurement": "Activity", "setting": "HCC827 [31]", "value": "Active"}, {"measurement": "Activity", "setting": "HCC827 [32]", "value": "Dose-dependent-effect"}, {"measurement": "Activity", "setting": "HCC827 [33]", "value": "Active"}, {"measurement": "Activity", "setting": "HCC827 [34]", "value": "Dose-dependent-effect"}, {"measurement": "Activity", "setting": "HCC827 [35]", "value": 1.17, "unit": "%"}]}]}
